Reference: patent US9340577B2, “HLA binding motifs and peptides and their uses” (priority 1992, dated 2016)
No end group written: not given here.

Legend:
Experiment in all cases: biochemical
[1] = biological target: DRB1*0802 (Homo sapiens, UniProt P01903+P01911, A100R/A103L/A169T/F76Y/H45Y/I96F/K41T/L162R/M171V/P40S/Q125H/Q178H/Q39Y/Q99D/R218S/R42G/S66Y/V115G/W38E); format: binding
[2] = biological target: DRB1*1201 (Homo sapiens, UniProt P01903+P01911, A100R/A169T/D57E/D86V/F55L/H45Y/K41T/L162R/M171V/P40S/Q125H/Q178H/Q39Y/Q99D/R42G/S66L/T262R/V114A/V67L/W38E/Y59H/Y61H/Y89S); format: binding
[3] = biological target: DRB1*1101 (Homo sapiens, UniProt P01903+P01911, A100R/A169T/A87E/I96F/K41T/L162R/M171V/P40S/Q125H/Q178H/Q39Y/Q99D/R42S/S66Y/T262R/V115G/W38E); conditions: Binding affinity DRB1 *1101
Chain of DRB1*1101 (P01903 26-254 limits assumed, other chains not shown): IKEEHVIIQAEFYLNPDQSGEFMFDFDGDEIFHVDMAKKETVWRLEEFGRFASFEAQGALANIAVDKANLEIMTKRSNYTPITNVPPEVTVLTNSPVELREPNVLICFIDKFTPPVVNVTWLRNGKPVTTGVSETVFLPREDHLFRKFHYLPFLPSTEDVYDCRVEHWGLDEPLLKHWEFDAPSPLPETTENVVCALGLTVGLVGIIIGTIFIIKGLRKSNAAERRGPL

[4] = biological target: DRB5*0101 (Homo sapiens, UniProt P01903+Q30154); conditions: Binding affinity DRB5 *0101
[5] = biological target: DRB1*0901 (Homo sapiens, UniProt P01903+P01911, A100R/A103E/D57H/D86V/F55Y/F60I/F76Y/I96F/K127E/L162R/M171V/P40D/Q125H/Q99R/R33Q/R42F/S133A/S66N/T210M/V115G/W38K/Y107V/Y59G/Y89S); format: binding
[6] = biological target: DR7 (DRB1*0701) (Homo sapiens, UniProt P01903+P01911, A100R/A102G/A103Q/D57E/D86V/E43K/F76Y/K127E/L162R/M171V/P40G/Q125H/Q99D/R33Q/R42Y/R54Q/S133A/S66F/T210M/V115G/Y107V/Y59L/Y89S); format: binding
[7] = biological target: DRB1*1501 (Homo sapiens, UniProt P01903+P01911); format: binding

Compound	IC50 [1]	IC50 [2]	IC50 [3]	IC50 [4]	IC50 [5]	IC50 [6]	IC50 [7]
CC[C@H](C)[C@H](NC(=O)[C@H](CO)NC(=O)[C@H](CC(C)C)NC(=O)[C@@H](NC(=O)[C@H](CC(C)C)NC(=O)[C@H](CC(=O)O)NC(=O)[C@H](Cc1c[nH]c2ccccc12)NC(=O)[C@@H](N)CCSC)C(C)C)C(=O)N[C@@H](C)C(=O)N[C@@H](CC(C)C)C(=O)N[C@@H](CO)C(=O)N[C@H](C(=O)NCC(=O)N[C@@H](CS)C(=O)N[C@H](C(=O)O)[C@@H](C)O)C(C)C [Peptide 68.0001]	> 20 µM	4.58 µM	> 20 µM	> 20 µM	–	–	–
CC[C@H](C)[C@H](NC(=O)[C@H](CO)NC(=O)[C@@H](NC(=O)CNC(=O)[C@H](CCC(=O)O)NC(=O)[C@@H]1CCCN1)C(C)C)C(=O)N[C@@H](Cc1c[nH]c2ccccc12)C(=O)N[C@@H](CC(N)=O)C(=O)N1CCC[C@H]1C(=O)N[C@H](C(=O)N[C@@H](CC(C)C)C(=O)N[C@@H](CC(C)C)C(=O)N[C@@H](Cc1c[nH]c2ccccc12)C(=O)N[C@@H](CCC(N)=O)C(=O)N1CCC[C@H]1C(=O)O)[C@@H](C)CC [Peptide 68.0033]	> 20 µM	7.97 µM	> 20 µM	> 20 µM	> 20 µM	–	–
CC[C@H](C)[C@H](NC(=O)[C@@H](N)CC(C)C)C(=O)N[C@@H](CCSC)C(=O)N[C@@H](Cc1ccc(O)cc1)C(=O)N[C@@H](CO)C(=O)N[C@@H](C)C(=O)N[C@@H](Cc1c[nH]cn1)C(=O)N[C@@H](CC(=O)O)C(=O)N[C@H](C(=O)N[C@H](C(=O)N[C@H](C(=O)N[C@@H](CO)C(=O)NCC(=O)N[C@@H](CC(C)C)C(=O)N[C@@H](CCC(N)=O)C(=O)O)C(C)C)[C@@H](C)O)[C@@H](C)O [Peptide 68.0050]	> 20 µM	> 20 µM	> 20 µM	> 20 µM	–	–	–
CSCC[C@H](NC(=O)[C@H](CCC(N)=O)NC(=O)[C@H](CC(C)C)NC(=O)CNC(=O)[C@H](CO)NC(=O)[C@@H](NC(=O)[C@@H](NC(=O)[C@@H](NC(=O)[C@@H](N)CC(=O)O)[C@@H](C)O)[C@@H](C)O)C(C)C)C(=O)N[C@@H](C)C(=O)N[C@@H](CC(C)C)C(=O)N[C@@H](CC(=O)O)C(=O)N[C@H](C(=O)N[C@@H](Cc1ccc(O)cc1)C(=O)N[C@@H](CC(N)=O)C(=O)O)C(C)C [Peptide 68.0051]	> 20 µM	0.712 µM	> 20 µM	> 20 µM	–	–	–
CC[C@H](C)[C@H](NC(=O)[C@@H](NC(=O)[C@@H](N)CO)C(C)C)C(=O)N[C@@H](CC(C)C)C(=O)N[C@@H](CC(C)C)C(=O)NCC(=O)N[C@@H](CCCNC(=N)N)C(=O)N[C@@H](Cc1c[nH]cn1)C(=O)N[C@@H](CO)C(=O)N[C@@H](CC(C)C)C(=O)N[C@@H](Cc1ccccc1)C(=O)N[C@@H](Cc1c[nH]cn1)C(=O)N1CCC[C@H]1C(=O)N[C@@H](CCC(=O)O)C(=O)N[C@@H](CC(=O)O)C(=O)O [Peptide 68.0067]	–	0.091 µM	–	–	–	> 20 µM	–
CC[C@H](C)[C@H](NC(=O)CNC(=O)[C@H](CCC(N)=O)NC(=O)[C@H](CC(C)C)NC(=O)[C@@H](NC(=O)CNC(=O)[C@H](CC(N)=O)NC(=O)[C@H](CS)NC(=O)[C@@H](NC(=O)[C@H](CC(C)C)NC(=O)[C@@H]1CCCN1C(=O)CN)C(C)C)C(C)C)C(=O)N[C@H](C(=O)N[C@@H](CO)C(=O)N[C@@H](Cc1c[nH]c2ccccc12)C(=O)O)[C@@H](C)O [Peptide 68.0080]	–	1.88 µM	–	–	> 20 µM	–	–
CC(C)C[C@H](NC(=O)CNC(=O)[C@H](Cc1ccccc1)NC(=O)[C@H](CCC(=O)O)NC(=O)[C@H](CCCCN)NC(=O)[C@@H](N)Cc1c[nH]c2ccccc12)C(=O)N[C@@H](CC(=O)O)C(=O)N[C@@H](CO)C(=O)N[C@H](C(=O)N[C@@H](CCC(=O)O)C(=O)N[C@@H](CC(C)C)C(=O)N[C@@H](C)C(=O)N[C@@H](Cc1c[nH]cn1)C(=O)N[C@@H](Cc1ccc(O)cc1)C(=O)N[C@@H](CC(=O)O)C(=O)O)C(C)C [Peptide 68.0088]	–	> 20 µM	–	> 20 µM	–	–	> 20 µM
CC[C@H](C)[C@H](NC(=O)[C@H](CO)NC(=O)[C@H](CO)NC(=O)[C@H](CC(=O)O)NC(=O)[C@H](C)NC(=O)[C@H](CC(N)=O)NC(=O)[C@@H](NC(=O)[C@H](Cc1ccc(O)cc1)NC(=O)[C@H](C)NC(=O)[C@@H](NC(=O)CN)C(C)C)[C@@H](C)CC)C(=O)N[C@@H](CCC(=O)O)C(=O)NCC(=O)N[C@@H](CC(N)=O)C(=O)N[C@@H](Cc1ccc(O)cc1)C(=O)O [Peptide 68.0110]	> 20 µM	5.49 µM	> 20 µM	> 20 µM	–	–	–
CSCC[C@H](NC(=O)[C@H](CC(C)C)NC(=O)[C@@H]1CCCN1C(=O)[C@@H](NC(=O)[C@H](CS)NC(=O)[C@H](CC(=O)O)NC(=O)[C@@H](NC(=O)[C@H](CCCNC(=N)N)NC(=O)[C@H](CC(C)C)NC(=O)[C@@H](NC(=O)[C@H](Cc1ccc(O)cc1)NC(=O)[C@@H](N)CC(N)=O)[C@@H](C)O)C(C)C)[C@@H](C)O)C(=O)N[C@@H](Cc1ccc(O)cc1)C(=O)N[C@@H](CO)C(=O)N[C@@H](CC(C)C)C(=O)O [Peptide 68.0112]	–	0.594 µM	–	> 20 µM	> 20 µM	> 20 µM	–
CC[C@H](C)[C@H](NC(=O)[C@H](CO)NC(=O)[C@H](CC(N)=O)NC(=O)[C@H](C)NC(=O)[C@H](CC(C)C)NC(=O)[C@H](CCC(=O)O)NC(=O)[C@H](Cc1ccccc1)NC(=O)[C@@H](NC(=O)[C@H](CCSC)NC(=O)CN)C(C)C)C(=O)N[C@H](C(=O)N[C@@H](CC(C)C)C(=O)N1CCC[C@H]1C(=O)N[C@@H](Cc1ccccc1)C(=O)N[C@@H](CC(=O)O)C(=O)O)C(C)C [Peptide 68.0123]	–	0.098 µM	> 20 µM	–	–	–	–
CC[C@H](C)[C@H](NC(=O)[C@H](CO)NC(=O)[C@H](CC(N)=O)NC(=O)[C@H](C)NC(=O)[C@H](CC(C)C)NC(=O)[C@H](CCC(=O)O)NC(=O)[C@H](Cc1ccccc1)NC(=O)[C@@H](N)C(C)C)C(=O)N[C@H](C(=O)N[C@@H](CC(C)C)C(=O)N1CCC[C@H]1C(=O)N[C@@H](Cc1ccccc1)C(=O)N[C@@H](CC(=O)O)C(=O)N[C@@H](CS)C(=O)N[C@@H](CCCNC(=N)N)C(=O)O)C(C)C [Peptide 68.0124]	> 20 µM	0.525 µM	–	–	–	–	–
CC[C@H](C)[C@H](NC(=O)[C@H](CCC(=O)O)NC(=O)[C@H](CC(N)=O)NC(=O)CNC(=O)[C@H](CC(=O)O)NC(=O)[C@H](CCC(=O)O)NC(=O)[C@H](CC(N)=O)NC(=O)[C@@H](NC(=O)[C@@H](NC(=O)[C@H](CO)NC(=O)[C@@H](NC(=O)[C@@H](N)Cc1ccc(O)cc1)[C@@H](C)CC)[C@@H](C)CC)[C@@H](C)CC)C(=O)N[C@@H](Cc1ccccc1)C(=O)N[C@@H](CC(N)=O)C(=O)N[C@H](C(=O)O)[C@@H](C)O [Peptide 68.0165]	> 20 µM	> 20 µM	> 20 µM	> 20 µM	> 20 µM	> 20 µM	–
CC[C@H](C)[C@H](NC(=O)[C@H](CO)NC(=O)[C@H](CO)NC(=O)[C@H](CC(=O)O)NC(=O)[C@H](C)NC(=O)[C@H](CC(N)=O)NC(=O)[C@@H](NC(=O)[C@H](Cc1ccc(O)cc1)NC(=O)[C@H](C)NC(=O)[C@@H](N)C(C)C)[C@@H](C)CC)C(=O)N[C@@H](CCC(=O)O)C(=O)NCC(=O)N[C@@H](CC(N)=O)C(=O)N[C@@H](Cc1ccc(O)cc1)C(=O)N[C@H](C(=O)O)[C@@H](C)O [Peptide 68.0177]	> 20 µM	8.25 µM	> 20 µM	> 20 µM	–	–	> 20 µM
CC[C@H](C)[C@H](NC(=O)[C@H](Cc1ccccc1)NC(=O)[C@H](C)NC(=O)[C@H](CCCNC(=N)N)NC(=O)[C@H](CCC(=O)O)NC(=O)[C@H](CC(C)C)NC(=O)[C@H](Cc1ccccc1)NC(=O)[C@H](CCSC)NC(=O)[C@H](CC(C)C)NC(=O)[C@H](CCC(N)=O)NC(=O)[C@@H](N)CC(=O)O)C(=O)N[C@@H](CC(=O)O)C(=O)N1CCC[C@H]1C(=O)N[C@@H](CC(C)C)C(=O)NCC(=O)O [Peptide 68.0181]	–	0.146 µM	–	–	–	–	–
EDFFKLERDMKINCS [Peptide 68.0167]	–	> 20 µM	–	–	> 20 µM	–	> 20 µM
GAAVVHEIVRSFGTL [Peptide 68.0173]	–	0.517 µM	–	–	–	–	–
GKVFRGNKVKNAQLA [Peptide 68.0096]	–	> 20 µM	–	–	> 20 µM	–	–
HPQWVLTAAHCLKKN [Peptide 68.0003]	–	11.5 µM	–	–	–	–	–
IGYYDAQKLLEKMGG [Peptide 68.0103]	–	> 20 µM	> 20 µM	–	> 20 µM	> 20 µM	–
LRMMNDQLMFLERAF [Peptide 68.0131]	–	0.28 µM	–	–	–	–	–
LTELYFEKGEYFVEM [Peptide 68.0153]	–	12.7 µM	> 20 µM	–	> 20 µM	–	> 20 µM
NSRLLQERGVAYINA [Peptide 68.0176]	–	0.62 µM	–	–	–	–	–
PRSLQCVSLHLLSND [Peptide 68.0016]	–	3.86 µM	–	> 20 µM	> 20 µM	–	–
